Columns and labels:
HS578T cells [1] = experiment: Cell viability, Cell Titer Glo Assay, HS578T cells; format: cell-based, human
Protocol: (§1) Cell viability was measured in 96-well plates by the Cell Titer Glo Assay (Promega), which is a luminescent assay that is an indicator of live cells as a function of metabolic activity and ATP content.

Wnt/β-catenin signaling [2] = experiment: Western blot / GST-E-cadherin binding assay of Wnt/β-catenin signaling markers, HS578T cells; format: cell-based, human; settings: 24 h treatment
Protocol: (§2) Cells in 6-well plates were lysed in 0.5 ml of lysis buffer (phosphate-buffered saline containing 1% Triton X-100 and 1 mM PMSF) at 4°C for 10 min. Equal quantities of protein were subjected to SDS-PAGE under reducing conditions. Following transfer to immobilon-P transfer membrane, successive incubations with anti-HA, anti-Wnt10b, anti-β-catenin, anti-OPG, anti-phosphorylated-LRP6, anti-LRP6, anti-Axin2, anti-Cyclin D1 or anti-actin, and horseradish peroxidase-conjugated secondary antibody were carried out for 60–120 min at room temperature. The immunoreactive proteins were then detected using the ECL system. Films showing immunoreactive bands were scanned by Kodak Digital Science DC120 Zoom Digital Camera.
(§3) The GST-E-cadherin binding assay was carried out exactly as previously described (9). Uncomplexed cytosolic free β-catenin present in 100 µg of total cell lysate was subjected to SDS-PAGE and detected using the monoclonal antibody to β-catenin.

Wnt/β-catenin signaling [3] = experiment: Super8XTOPFlash luciferase reporter assay, PC-3 cells; format: cell-based, human; settings: 24 h treatment
Protocol: (§4) Cells were plated into 24-well plates. After overnight culture, the cells were transiently transfected with the TOPFlash or Super8XTOPFlash luciferase construct, β-galactosidase-expressing vector, and pcDNA3.1C-Myc-hLRP5, pCS-Myc-hLRP6 or control vector. After 24 h incubation, cells were treated with Mesd, Mesd peptide, Rspo1 and Wnt3A CM. Cells were then lysed 24 h later and both luciferase and β-galactosidase activities were determined. The luciferase activity was normalized to the β-galactosidase activity.

Wnt/β-catenin signaling [4] = experiment: Super8XTOPFlash luciferase reporter assay, HS578T cells; format: cell-based, human; settings: 24 h treatment
Protocol: as §4

HS578T cells [5] = experiment: Cell proliferation assay (trypan blue exclusion), HS578T cells; format: cell-based, human; settings: DMEM 2% FBS, 10 days, mMesd 2 µM, hMesd (160–197) 4 µM, control peptide 4 µM, n = 3
Protocol: (§5) Cells were seeded into 6-well plates at a density of 10000 cells/well. RPMI-1640 or DMEM medium containing 2% FBS was used as assay media. After 16 h incubation, the cells were treated with Mesd or its peptide for 10 days. Media were changed every other day. At the end of the experiment, cells were harvested and counted using the trypan blue exclusion assay.

Wnt/β-catenin signaling [6] = experiment: Western blot / GST-E-cadherin binding assay of Wnt/β-catenin signaling markers, PC-3 cells; format: cell-based, human
Protocol: as §2, §3

PC-3 cells [7] = experiment: Cell proliferation assay (trypan blue exclusion), PC-3 cells; format: cell-based, human; settings: PC-3, RPMI-1640 2% FBS, 10 days; mMesd 2 µM, hMesd (160–197) 4 µM, control peptide 4 µM; n = 3
Protocol: as §5

Wnt/β-catenin signaling [8] = experiment: Super8XTOPFlash luciferase reporter assay, HEK293 cells (Figure S1, S2); format: cell-based, human; settings: 24 h, peptide 8 µM in Figure S1
Protocol: as §4
Supplementary file pone.0058102.s001.tif: Figure S1 Human Mesd C-terminal region peptide blocks Wnt/β-catenin signaling induced by LRP6, Wnt3A and Rspo1 in HEK293 cells. […] The luciferase activity was then measured 24 h later with normalization to the activity of the β-galactosidase. […]
Supplementary file pone.0058102.s002.tif: Figure S2 Mesd blocks Wnt1- or Wnt10b-induced Wnt/β-catenin signaling in HEK293 cells. […] The luciferase activity was then measured 24 h later with normalization to the activity of the β-galactosidase. […] The levels of cytosolic free β-catenin, and total cellular Wnt1, Wnt10b, β-catenin, LRP6, Axin2, cyclin D1 and phosphorylated LRP6 were then analyzed by Western blotting. […]

PC-3 cells [9] = experiment: Cell viability, Cell Titer Glo Assay, PC-3 cells; format: cell-based, human; settings: Mesd 2 µM or hMesd (160–197) 2 µM with Adriamycin 0.5 µM, 2 days after pre-treatment
Protocol: as §1

MDA-MB-231 tumor = settings: cited from earlier work
HS578T cells [10] = experiment: BrdU proliferation ELISA, HS578T cells; format: cell-based, human; settings: peptide 2 µM, 7 days in 2% FBS then 2 days in 10% FBS, n = 6
Protocol: (§6) BrdU incorporation into proliferating cells was analyzed by a cell proliferation ELISA BrdU kit (colorimetric, Roche) according to the manufacturer's instructions.

PC-3 cells [11] = experiment: BrdU proliferation ELISA, PC-3 cells; format: cell-based, human; settings: PC-3, peptide 2 µM, 7 days in 2% FBS then 2 days in 10% FBS; n = 6
Protocol: as §6

LRP6 = experiment: 125I-Mesd ligand binding assay, LRP6-transduced HT1080 cells; set-up: species or system human; settings: for block of Mesd protein binding to LRP6 at the cell surface / concentration at which inhibitory ability on Mesd binding was displayed: 125I-Mesd 5 nM, 4 h at 4°C; for block of Mesd protein binding to LRP6 at the cell surface: LRP6-transduced HT1080 cells; for concentration at which inhibitory ability on Mesd binding was displayed / inhibitory concentration relative to that required for mMesd (155–191): LRP6-expressing cells
Protocol: (§7) Ligand binding assay was carried out exactly as previously described. Cells (2×10^5) were seeded into 12-well dishes 1 day prior to assay. Ligand-binding buffer (minimal Eagle's medium containing 0.6% BSA with a different concentration of radioligand, 0.6 ml/well) was added to cell monolayers, in the absence or the presence of unlabeled Mesd or its peptide, followed by incubation for 4 h at 4°C. Thereafter, overlying buffer containing unbound ligand was removed, and cell monolayers were washed and lysed in low-SDS lysis buffer (62.5 mM Tris-HCl pH 6.8, 0.2% SDS, 10% v/glycerol) and counted.

LRP5 = experiment: 125I-Mesd ligand binding assay, LRP5-transfected ldl-7 cells; settings: for block of Mesd protein binding to LRP5 at the cell surface / concentration at which inhibitory ability on Mesd binding was displayed: 4 h at 4°C; for concentration at which inhibitory ability on Mesd binding was displayed / inhibitory concentration relative to that required for mMesd (155–191): LRP5-expressing cells
Protocol: as §7

Wnt/β-catenin signaling [12] = experiment: TOPFlash luciferase reporter assay, LRP6-transfected HEK293 cells; format: cell-based, human; settings: Wnt3A CM 5%, Rspo1 40 ng/ml, mMesd 2 µM, peptide at indicated concentrations, 24 h, normalized to β-galactosidase
Protocol: as §4

Wnt/β-catenin signaling [13] = experiment: TOPFlash luciferase reporter assay, LRP5-transfected HEK293 cells; format: cell-based, human; settings: Wnt3A CM 5%, Rspo1 40 ng/ml, mMesd 2 µM, peptide at indicated concentrations, 24 h, normalized to β-galactosidase
Protocol: as §4

OPG expression = experiment: Western blot of OPG expression in C2C12 cells; format: cell-based, mouse; settings: 48 h, mMesd 0.5 µM
Protocol: as §2

LRP6 phosphorylation = experiment: Western blot of phosphorylated LRP6 in C2C12 cells; format: cell-based, mouse; settings: C2C12, Wnt3A CM 5%, 6 h; mMesd 0.5 µM, peptide at indicated concentrations
Protocol: as §2

[14] = peptides at indicated concentrations, Figure 1C
[15] = 125I-Mesd 5 nM, peptides at indicated concentrations, LRP5-transfected ldl-7 cells, Figure 1C

For `COc1cccc2c1C(=O)c1c(O)c3c(c(O)c1C2=O)C[C@@](O)(C(=O)CO)C[C@@H]3O[C@H]1C[C@H](N)[C@H](O)[C@H](C)O1` [Adriamycin, reference compound], the “inhibition of cell viability” value (HS578T cells [1]; single agent: Mesd protein 2 µM or Adriamycin 0.5 µM, Mesd 4 days pre-treatment, then 2 days, n = 4) was 69%.
In the case of “KGGGSKEKNKTKQDKGKKKKEGDLKSRSSKEENRAGNK [hMesd (160–197), human Mesd C-terminal region peptide, corresponding to mMesd (155–191)]”, the “levels of cytosolic free β-catenin, LRP6 phosphorylation, Axin2 and cyclin D1” value (“levels of cytosolic free β-catenin” for short) (Wnt/β-catenin signaling [2]; HS578T) is reported as “greatly decreased”, the “levels of cytosolic free β-catenin” value (Wnt/β-catenin signaling [2]; Wnt1-expressing HS578T) is reported as “greatly decreased” and the Adriamycin-induced cytotoxicity (HS578T cells [1]; Mesd 2 µM or hMesd (160–197) 2 µM with Adriamycin 0.5 µM, 2 days after pre-treatment) is reported as “potentiate”. For the same molecule, the “Wnt reporter luciferase activity” value (Wnt/β-catenin signaling [3]; PC-3, endogenous signaling, indicated concentrations) was “significantly repressed”, the “Wnt reporter luciferase activity induced by Wnt1” value (Wnt/β-catenin signaling [3]; PC-3 transfected with Wnt1 plasmid) was “significantly repress” and the “Wnt reporter luciferase activity induced by Wnt1” value (Wnt/β-catenin signaling [4]; HS578T transfected with Wnt1 plasmid) was “significantly repress”. For the same molecule, the “Wnt reporter luciferase activity” value (Wnt/β-catenin signaling [4]; HS578T, endogenous signaling, indicated concentrations) was “significantly repressed”, the cell proliferation (HS578T cells [5]) was “displayed inhibitory effect” and the “levels of cytosolic free β-catenin” value (Wnt/β-catenin signaling [6]; PC-3, 24 h treatment) was “greatly decreased”. For the same molecule, the “levels of cytosolic free β-catenin” value (Wnt/β-catenin signaling [6]; Wnt1-expressing PC-3, 24 h treatment) was “greatly decreased”, the cell proliferation (PC-3 cells [7]) was “displayed inhibitory effect” and the “Wnt/β-catenin signaling induced by LRP6, Wnt3A, Rspo1, Wnt1 and Wnt10b” value (Wnt/β-catenin signaling [8]) was “displayed inhibitory effects”. The Adriamycin-induced cytotoxicity (PC-3 cells [9]) was “potentiate”.
In the case of “Mesd C-terminal region peptide: generic wording; in Figure 7B it is hMesd (160–197); in cited work (ref 13) the peptide is not specified (KGGGSKEKNKTKQDKGKKKKEGDLKSRSSKEENRAGNK)”, the MDA-MB-231 tumor growth (MDA-MB-231 tumor) is given as “suppressed”, the BrdU incorporation (HS578T cells [10]) is given as “decreased BrdU incorporation” and the BrdU incorporation (PC-3 cells [11]) is given as “decreased BrdU incorporation”.
With “mMesd (155–164): Mesd peptide based on the mouse Mesd C-terminal region sequence” the “block of Mesd protein binding to LRP6 at the cell surface” value (“block of Mesd protein binding to LRP6” for short) (LRP6; [14]) was “unable to block” and the “block of Mesd protein binding to LRP5 at the cell surface” value (“block of Mesd protein binding to LRP5” below) (LRP5; [15]) was “unable to block”.
For “mMesd (155–173): Mesd peptide based on the mouse Mesd C-terminal region sequence (GSYAWEIKDFLVSQDRCAE; UniProt Q9ERE7 155-173, looked up, fragment)”, the “block of Mesd protein binding to LRP6” value (LRP6; [14]) was “inhibition” and the “block of Mesd protein binding to LRP5” value (LRP5; [15]) was “inhibition”.
For “mMesd (155–191): shorter mouse Mesd C-terminal region peptide lacking 9 conserved terminal residues of mMesd (150–195) (GSYAWEIKDFLVSQDRCAEVTLEGQMYPGKGGGSKEK; UniProt Q9ERE7 155-191, looked up, fragment)”, the “block of Mesd protein binding to LRP6” value (LRP6; 500 nM peptide, Figure 1B, triple determinations) was “blocked”, the “TOPFlash activity induced by LRP6, LRP6 plus Wnt3A, LRP6 plus Rspo1” value (Wnt/β-catenin signaling [12]) was “blocked” and the “TOPFlash activity induced by LRP5, LRP5 plus Wnt3A, LRP5 plus Rspo1” value (Wnt/β-catenin signaling [13]) was “blocked”. The “OPG expression induced by Rspo1 plus Wnt3A” value (OPG expression; C2C12, Rspo1 20 ng/ml, Wnt3A CM 2%, mMesd (155–191) 2 µM) was “repressed”, the “Wnt3A-induced OPG expression” value (OPG expression; C2C12, Wnt3A CM 5%, peptide at indicated concentrations) was “able to suppress” and the “Wnt3A-induced endogenous LRP6 phosphorylation” value (LRP6 phosphorylation) was “able to suppress”. The “block of Mesd protein binding to LRP5” value (LRP5; 125I-Mesd binding assay with LRP5-expressing cells) was “blocked”.
With “mMesd (160–169): Mesd peptide based on the mouse Mesd C-terminal region sequence (EIKDFLVSQD; UniProt Q9ERE7 160-169, looked up, fragment)” the “concentration at which inhibitory ability on Mesd binding was displayed” value (LRP6) was 50 µM, the “inhibitory concentration relative to that required for mMesd (155–191)” value (LRP6) was 100 times and the “concentration at which inhibitory ability on Mesd binding was displayed” value (LRP5; 125I-Mesd 5 nM) was 50 µM. The “inhibitory concentration relative to that required for mMesd (155–191)” value (LRP5) was 100 times.
With “mMesd (165–182): Mesd peptide based on the mouse Mesd C-terminal region sequence (LVSQDRCAEVTLEGQMYP; UniProt Q9ERE7 165-182, looked up, fragment)” the “block of Mesd protein binding to LRP6” value (LRP6; [14]) was “unable to block” and the “block of Mesd protein binding to LRP5” value (LRP5; [15]) was “unable to block”.
With “mMesd (174–191): Mesd peptide based on the mouse Mesd C-terminal region sequence (VTLEGQMYPGKGGGSKEK; UniProt Q9ERE7 174-191, looked up, fragment)” the “block of Mesd protein binding to LRP6” value (LRP6; [14]) was “inhibition” and the “block of Mesd protein binding to LRP5” value (LRP5; [15]) was “inhibition”.
For “mMesd (183–191): Mesd peptide based on the mouse Mesd C-terminal region sequence (GKGGGSKEK; UniProt Q9ERE7 183-191, looked up, fragment)”, the “concentration at which inhibitory ability on Mesd binding was displayed” value (LRP6) was 50 µM, the “inhibitory concentration relative to that required for mMesd (155–191)” value (LRP6) was 100 times and the “concentration at which inhibitory ability on Mesd binding was displayed” value (LRP5; 125I-Mesd 5 nM) was 50 µM. The “inhibitory concentration relative to that required for mMesd (155–191)” value (LRP5) was 100 times.
